In ChEMBL document CHEMBL3526141, “Characterization of human liver enzymes involved in the biotransformation of boceprevir, a hepatitis C virus protease inhibitor” (Drug Metab Dispos, 2011):
One block for each compound: values may come before it.

Columns and labels:
Liver microsome = assay: Drug metabolism in human liver microsomes treated with 5 uM [14C]boceprevir assessed as compound formation by LC-MS/FSA method relative to total [14C]boceprevir; format: ADME
Liver cytosol [1] = assay: Drug metabolism in human liver cytosol assessed as (1R,2S,5S)-N-((2R,3R)-4-amino-1-cyclobutyl-3-hydroxy-4-oxobutan-2-yl)-3-((S)-2-(3-tert-butylureido)-3,3-dimethylbutanoyl)-6,6-dimethyl-3-azabicyclo[3.1.0]hexane-2-carboxamide formation per mg protein after 60 mins by LC-MS/MS/FSA method; format: ADME, tissue-based; settings: 1 h
Liver cytosol [2] = assay: Drug metabolism in human liver cytosol assessed as (1R,2S,5S)-N-((2R,3R)-4-amino-1-cyclobutyl-3-hydroxy-4-oxobutan-2-yl)-3-((S)-2-(3-tert-butylureido)-3,3-dimethylbutanoyl)-6,6-dimethyl-3-azabicyclo[3.1.0]hexane-2-carboxamide formation after 60 mins by LC-MS/MS/FSA method; format: ADME, tissue-based; settings: 1 h
[3] = biological target: T1, Aldo-keto reductase family 1 member C3 (Homo sapiens, UniProt P42330); assay: Drug metabolism in human recombinant […] HEK293 cells treated with 20 uM boceprevir assessed as 1 mM BNPP-mediated inhibition of AKR1C3-mediated metabolite formation after 120 mins in presence of NADPH by LC-MS/MS/FSA method; format: ADME, cell-based; parameters: interact cpd dose 1 mM; settings: hek293, 2 h
T1 sequence (P42330 whole entry): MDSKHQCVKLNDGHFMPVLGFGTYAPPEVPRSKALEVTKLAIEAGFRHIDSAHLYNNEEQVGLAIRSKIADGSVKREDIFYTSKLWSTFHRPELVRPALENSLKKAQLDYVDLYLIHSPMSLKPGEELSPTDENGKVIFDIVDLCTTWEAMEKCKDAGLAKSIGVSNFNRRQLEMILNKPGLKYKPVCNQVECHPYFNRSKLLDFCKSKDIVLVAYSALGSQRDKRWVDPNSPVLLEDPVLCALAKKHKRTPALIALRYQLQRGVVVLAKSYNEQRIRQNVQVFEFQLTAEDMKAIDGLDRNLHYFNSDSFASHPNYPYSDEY

[4] = biological target: T2, Aldo-keto reductase family 1 member C2 (Homo sapiens, UniProt P52895); assay: Drug metabolism in human recombinant AKR1C2 expressing HEK293 cells treated with 20 uM boceprevir assessed as 1 mM ibuprofen-mediated inhibition of AKR1C2-mediated metabolite formation after 120 mins in presence of NADPH by LC-MS/MS/FSA method; format: ADME, cell-based; parameters: interact cpd dose 1 mM; settings: hek293, 2 h
T2 sequence (P52895 whole entry): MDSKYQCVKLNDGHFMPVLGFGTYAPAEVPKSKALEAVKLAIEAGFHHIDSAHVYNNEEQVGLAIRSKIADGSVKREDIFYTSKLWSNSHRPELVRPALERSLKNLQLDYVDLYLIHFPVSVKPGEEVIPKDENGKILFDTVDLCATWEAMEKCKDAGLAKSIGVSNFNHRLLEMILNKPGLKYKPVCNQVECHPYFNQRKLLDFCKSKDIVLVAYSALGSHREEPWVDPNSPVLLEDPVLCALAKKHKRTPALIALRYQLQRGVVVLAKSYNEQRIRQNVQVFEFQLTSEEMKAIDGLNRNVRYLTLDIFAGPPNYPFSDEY

[5] = biological target: T2, Aldo-keto reductase family 1 member C2; assay: Drug metabolism in human recombinant AKR1C2 expressing HEK293 cells treated with 20 uM boceprevir assessed as 100 uM diazepam-mediated inhibition of AKR1C2-mediated metabolite formation after 120 mins in presence of NADPH by LC-MS/MS/FSA method; format: ADME, cell-based; parameters: interact cpd dose 100 uM; settings: hek293, 2 h
[6] = biological target: T1, Aldo-keto reductase family 1 member C3; assay: Drug metabolism in human recombinant […] HEK293 cells treated with 20 uM boceprevir assessed as 1 mM ibuprofen-mediated inhibition of AKR1C3-mediated metabolite formation after 120 mins in presence of NADPH by LC-MS/MS/FSA method; format: ADME, cell-based; parameters: interact cpd dose 1 mM; settings: hek293, 2 h
[7] = biological target: T1, Aldo-keto reductase family 1 member C3; assay: Drug metabolism in human recombinant […] HEK293 cells treated with 20 uM boceprevir assessed as 100 uM diazepam-mediated inhibition of AKR1C3-mediated metabolite formation after 120 mins in presence of NADPH by LC-MS/MS/FSA method; format: ADME, cell-based; parameters: interact cpd dose 100 uM; settings: hek293, 2 h
Liver cytosol [8] = assay: (§1) Drug metabolism in human liver cytosol at 20 uM assessed as (1R,2S,5S)-N-((2S,3R)-4-amino-1-cyclobutyl-3-hydroxy-4-oxobutan-2-yl)-3-((S)-2-(3-tert-butylureido)-3,3-dimethylbutanoyl)-6,6-dimethyl-3-azabicyclo[3.1.0]hexane-2-carboxamide formation at 20 uM after 60 mins in presence of AKR inhibitor diflunisal by LC-MS/MS/FSA method; format: ADME; settings: 1 h
[9] = biological target: T2, Aldo-keto reductase family 1 member C2; assay: Activity of human recombinant AKR1C2 expressed in HEK293 cells assessed as (1R,2S,5S)-N-((2R,3R)-4-amino-1-cyclobutyl-3-hydroxy-4-oxobutan-2-yl)-3-((S)-2-(3-tert-butylureido)-3,3-dimethylbutanoyl)-6,6-dimethyl-3-azabicyclo[3.1.0]hexane-2-carboxamide formation at 20 uM after 120 mins in presence of NADPH by LC-MS/MS/FSA method; format: ADME, cell-based; settings: hek293, 2 h
Liver cytosol [10] = assay: Drug metabolism in human liver cytosol at 20 uM assessed as (1R,2S,5S)-N-((2S,3R)-4-amino-1-cyclobutyl-3-hydroxy-4-oxobutan-2-yl)-3-((S)-2-(3-tert-butylureido)-3,3-dimethylbutanoyl)-6,6-dimethyl-3-azabicyclo[3.1.0]hexane-2-carboxamide formation in presence of flufenamic acid by LC-MS/MS/FSA method; format: ADME
[11] = biological target: T1, Aldo-keto reductase family 1 member C3; assay: Activity of human recombinant AKR1C3 expressed in HEK293 cells assessed as (1R,2S,5S)-N-((2S,3R)-4-amino-1-cyclobutyl-3-hydroxy-4-oxobutan-2-yl)-3-((S)-2-(3-tert-butylureido)-3,3-dimethylbutanoyl)-6,6-dimethyl-3-azabicyclo[3.1.0]hexane-2-carboxamide formation after 120 mins in presence of NADPH by LC-MS/MS/FSA method; format: ADME, cell-based; settings: hek293, 2 h
[12] = Drug metabolism in human liver S9 fraction at 20 uM assessed as (1R,2S,5S)-N-((2S,3R)-4-amino-1-cyclobutyl-3-hydroxy-4-oxobutan-2-yl)-3-((S)-2-(3-tert-butylureido)-3,3-dimethylbutanoyl)-6,6-dimethyl-3-azabicyclo[3.1.0]hexane-2-carboxamide formation in presence of BNPP by LC-MS/MS/FSA method; format: ADME, subcellular; settings: s9, 20 µM
[13] = Drug metabolism in human liver S9 fraction at 20 uM assessed as (1R,2S,5S)-N-((2S,3R)-4-amino-1-cyclobutyl-3-hydroxy-4-oxobutan-2-yl)-3-((S)-2-(3-tert-butylureido)-3,3-dimethylbutanoyl)-6,6-dimethyl-3-azabicyclo[3.1.0]hexane-2-carboxamide formation in presence of allopurinol by LC-MS/MS/FSA method; format: ADME, subcellular; settings: s9, 20 µM
[14] = Drug excretion in human feces assessed as carbonyl reduction pathway related metabolites level; format: ADME; parameters: dosed compound name [14C]boceprevir
Liver cytosol [15] = assay: as §1, with “co-incubation with ritonavir” for “AKR inhibitor diflunisal”; format: ADME; settings: 1 h
[16] = Drug excretion in human feces assessed as oxidative metabolites level; format: ADME; parameters: dosed compound name [14C]boceprevir
Liver cytosol [17] = assay: Drug metabolism in human liver cytosol at 20 uM assessed as (1R,2S,5S)-N-((2S,3R)-4-amino-1-cyclobutyl-3-hydroxy-4-oxobutan-2-yl)-3-((S)-2-(3-tert-butylureido)-3,3-dimethylbutanoyl)-6,6-dimethyl-3-azabicyclo[3.1.0]hexane-2-carboxamide formation in presence of menadione by LC-MS/MS/FSA method; format: ADME
Liver cytosol [18] = assay: Drug metabolism in human liver cytosol at 20 uM assessed as (1R,2S,5S)-N-((2S,3R)-4-amino-1-cyclobutyl-3-hydroxy-4-oxobutan-2-yl)-3-((S)-2-(3-tert-butylureido)-3,3-dimethylbutanoyl)-6,6-dimethyl-3-azabicyclo[3.1.0]hexane-2-carboxamide formation in presence of phenolphthalein by LC-MS/MS/FSA method; format: ADME

Compound recovery (Liver microsome): 0.31%
Vmax (Liver cytosol [1]): 0.846 pmol/min
Km (Liver cytosol [2]): 27.4 µM
SMILES: CC(C)(C)NC(=O)N[C@H](C(=O)N1C[C@H]2[C@@H]([C@H]1C(=O)N[C@H](CC1CCC1)C(=O)C(N)=O)C2(C)C)C(C)(C)C

inhibition (INH) [3]: 69%
inhibition (INH) [4]: > 89%
inhibition (INH) [5]: > 89%
inhibition (INH) [6]: 55%
inhibition (INH) [7]: 80%
SMILES: CC(C)(C)NC(=O)N[C@H](C(=O)N1C[C@H]2[C@@H]([C@H]1C(=O)N[C@@H](CC1CCC1)[C@@H](O)C(N)=O)C2(C)C)C(C)(C)C

Compound recovery (Liver cytosol [8]): metabolite_not_detected
Compound recovery [9]: metabolite_detected
Compound recovery (Liver cytosol [10]): metabolite_not_detected
Km [11]: 43.5 µM
Compound recovery [12]: metabolite_not_detected
Compound recovery [13]: metabolite_detected
Radiolabel recovery [14]: 22%
Compound recovery (Liver cytosol [15]): metabolite_detected
Radiolabel recovery [16]: 50%
Compound recovery (Liver cytosol [17]): metabolite_not_detected
Compound recovery (Liver cytosol [18]): metabolite_not_detected
SMILES: CC(C)(C)NC(=O)N[C@H](C(=O)N1C[C@H]2[C@@H]([C@H]1C(=O)NC(CC1CCC1)C(=O)C(N)=O)C2(C)C)C(C)(C)C (some centres undefined) [BOCEPREVIR]
